Where a SMILES comes first, the peptide text is derived from it.
Legend:
[1] = molecular target: Gamma-aminobutyric acid receptor subunit alpha-1 (Rattus norvegicus, UniProt P62813)
[2] = molecular target: T1, Alpha-2C adrenergic receptor (Homo sapiens, UniProt P18825); type: functional
T1 sequence (P18825 whole entry): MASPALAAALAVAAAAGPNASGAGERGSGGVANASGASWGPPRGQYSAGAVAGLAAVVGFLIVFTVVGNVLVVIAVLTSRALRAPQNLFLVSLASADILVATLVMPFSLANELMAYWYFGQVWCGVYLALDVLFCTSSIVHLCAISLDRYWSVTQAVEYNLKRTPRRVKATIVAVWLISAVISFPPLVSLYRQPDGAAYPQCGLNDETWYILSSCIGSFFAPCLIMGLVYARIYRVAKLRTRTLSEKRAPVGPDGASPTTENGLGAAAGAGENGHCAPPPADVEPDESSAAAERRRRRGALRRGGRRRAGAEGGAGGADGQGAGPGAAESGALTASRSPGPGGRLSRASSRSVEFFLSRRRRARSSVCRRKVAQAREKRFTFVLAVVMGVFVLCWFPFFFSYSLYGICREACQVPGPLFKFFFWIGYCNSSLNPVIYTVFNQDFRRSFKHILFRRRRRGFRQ

D(3) dopamine receptor = D(3) dopamine receptor (Homo sapiens, UniProt P35462)
Chain of D(3) dopamine receptor (P35462 whole entry): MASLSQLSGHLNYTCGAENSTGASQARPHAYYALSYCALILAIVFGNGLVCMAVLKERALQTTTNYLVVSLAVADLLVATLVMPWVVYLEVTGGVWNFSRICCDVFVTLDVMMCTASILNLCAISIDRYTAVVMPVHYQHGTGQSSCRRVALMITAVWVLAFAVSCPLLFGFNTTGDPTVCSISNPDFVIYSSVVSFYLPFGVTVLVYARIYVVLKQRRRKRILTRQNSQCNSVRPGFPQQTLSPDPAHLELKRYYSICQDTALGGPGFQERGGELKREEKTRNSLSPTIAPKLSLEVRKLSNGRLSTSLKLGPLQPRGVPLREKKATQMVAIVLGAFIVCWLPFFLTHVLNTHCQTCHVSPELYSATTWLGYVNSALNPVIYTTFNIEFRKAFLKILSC

[3] = molecular target: Beta-2 adrenergic receptor (Homo sapiens, UniProt P07550)
[4] = molecular target: T2, 5-hydroxytryptamine receptor 1A (Homo sapiens, UniProt P08908); type: functional, cell-based
T2 sequence (P08908 whole entry): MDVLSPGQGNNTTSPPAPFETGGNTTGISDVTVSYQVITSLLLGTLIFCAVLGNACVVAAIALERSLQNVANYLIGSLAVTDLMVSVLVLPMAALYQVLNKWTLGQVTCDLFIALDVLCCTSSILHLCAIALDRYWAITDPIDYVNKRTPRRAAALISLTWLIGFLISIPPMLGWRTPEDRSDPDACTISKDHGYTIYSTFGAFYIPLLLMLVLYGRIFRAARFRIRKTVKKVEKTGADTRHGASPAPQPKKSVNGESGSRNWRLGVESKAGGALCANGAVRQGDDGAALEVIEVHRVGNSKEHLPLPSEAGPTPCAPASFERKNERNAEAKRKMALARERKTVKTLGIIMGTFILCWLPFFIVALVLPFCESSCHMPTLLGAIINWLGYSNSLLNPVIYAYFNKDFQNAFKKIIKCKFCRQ

[5] = molecular target: Delta-type opioid receptor (Homo sapiens, UniProt P41143)
Chain of Delta-type opioid receptor (P41143 whole entry): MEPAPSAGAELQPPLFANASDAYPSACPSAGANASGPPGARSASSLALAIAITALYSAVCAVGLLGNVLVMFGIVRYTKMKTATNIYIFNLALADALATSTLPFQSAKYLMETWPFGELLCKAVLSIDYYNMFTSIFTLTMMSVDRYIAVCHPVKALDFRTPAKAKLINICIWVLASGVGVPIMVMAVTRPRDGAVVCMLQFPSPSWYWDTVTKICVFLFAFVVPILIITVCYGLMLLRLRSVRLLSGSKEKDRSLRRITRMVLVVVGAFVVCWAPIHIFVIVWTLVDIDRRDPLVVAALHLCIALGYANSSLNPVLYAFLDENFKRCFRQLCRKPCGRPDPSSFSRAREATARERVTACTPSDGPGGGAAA

[6] = molecular target: T3, Alpha-1A adrenergic receptor (Homo sapiens, UniProt P35348); type: functional, cell-based
T3 sequence (P35348 whole entry): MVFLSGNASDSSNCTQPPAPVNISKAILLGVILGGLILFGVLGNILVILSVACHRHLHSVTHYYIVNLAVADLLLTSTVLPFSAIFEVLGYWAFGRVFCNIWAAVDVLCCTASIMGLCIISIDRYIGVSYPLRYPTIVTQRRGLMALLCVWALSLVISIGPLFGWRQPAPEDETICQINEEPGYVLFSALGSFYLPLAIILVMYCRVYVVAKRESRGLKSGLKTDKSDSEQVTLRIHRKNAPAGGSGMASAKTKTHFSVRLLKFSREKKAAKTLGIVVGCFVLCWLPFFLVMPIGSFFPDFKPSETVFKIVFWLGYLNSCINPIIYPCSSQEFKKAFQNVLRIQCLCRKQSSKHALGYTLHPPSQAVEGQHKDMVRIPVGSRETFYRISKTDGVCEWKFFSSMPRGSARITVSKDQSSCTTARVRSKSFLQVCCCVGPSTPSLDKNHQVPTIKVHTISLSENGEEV

[7] = molecular target: T4, Neuropeptide Y receptor type 1 (Homo sapiens, UniProt P25929)
T4 sequence (P25929 whole entry): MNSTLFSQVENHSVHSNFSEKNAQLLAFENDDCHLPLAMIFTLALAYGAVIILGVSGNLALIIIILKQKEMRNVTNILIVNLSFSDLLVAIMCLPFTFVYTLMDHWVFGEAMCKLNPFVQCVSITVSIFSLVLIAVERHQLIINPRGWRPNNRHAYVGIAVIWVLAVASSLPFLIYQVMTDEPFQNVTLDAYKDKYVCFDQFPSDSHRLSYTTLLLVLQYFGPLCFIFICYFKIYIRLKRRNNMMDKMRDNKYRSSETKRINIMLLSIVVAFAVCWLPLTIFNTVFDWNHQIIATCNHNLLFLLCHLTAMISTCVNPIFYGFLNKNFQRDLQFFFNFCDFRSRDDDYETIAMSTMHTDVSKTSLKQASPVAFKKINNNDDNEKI

[8] = molecular target: Kappa-type opioid receptor (Homo sapiens, UniProt P41145)
Chain of Kappa-type opioid receptor (P41145 whole entry): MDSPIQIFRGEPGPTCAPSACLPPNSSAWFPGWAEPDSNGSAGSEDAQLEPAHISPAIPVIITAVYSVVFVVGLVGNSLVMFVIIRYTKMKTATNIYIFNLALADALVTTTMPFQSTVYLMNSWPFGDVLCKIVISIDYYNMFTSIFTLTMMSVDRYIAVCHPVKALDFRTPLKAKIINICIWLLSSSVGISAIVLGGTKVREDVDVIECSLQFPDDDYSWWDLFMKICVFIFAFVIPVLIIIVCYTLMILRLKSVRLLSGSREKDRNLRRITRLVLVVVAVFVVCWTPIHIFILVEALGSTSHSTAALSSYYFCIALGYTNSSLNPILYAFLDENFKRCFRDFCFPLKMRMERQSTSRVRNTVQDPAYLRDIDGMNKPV

[9] = molecular target: T5, Amine oxidase [flavin-containing] A (Homo sapiens, UniProt P21397); type: functional
T5 sequence (P21397 whole entry): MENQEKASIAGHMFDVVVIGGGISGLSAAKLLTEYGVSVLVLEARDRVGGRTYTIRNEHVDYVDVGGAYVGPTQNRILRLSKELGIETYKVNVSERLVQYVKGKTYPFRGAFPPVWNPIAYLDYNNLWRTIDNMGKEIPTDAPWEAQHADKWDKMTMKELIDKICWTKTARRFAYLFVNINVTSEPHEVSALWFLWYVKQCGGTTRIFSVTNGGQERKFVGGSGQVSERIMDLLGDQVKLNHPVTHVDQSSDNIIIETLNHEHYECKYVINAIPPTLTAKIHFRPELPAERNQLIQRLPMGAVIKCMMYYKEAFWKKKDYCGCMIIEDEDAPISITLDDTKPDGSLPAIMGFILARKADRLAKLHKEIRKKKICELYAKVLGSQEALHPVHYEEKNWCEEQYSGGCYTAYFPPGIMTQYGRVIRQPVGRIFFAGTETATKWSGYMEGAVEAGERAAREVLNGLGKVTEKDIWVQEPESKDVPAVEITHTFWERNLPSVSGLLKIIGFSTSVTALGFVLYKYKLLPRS
Also: assay procedure not described here.

Chain of Gamma-aminobutyric acid receptor subunit alpha-1 (P62813 whole entry): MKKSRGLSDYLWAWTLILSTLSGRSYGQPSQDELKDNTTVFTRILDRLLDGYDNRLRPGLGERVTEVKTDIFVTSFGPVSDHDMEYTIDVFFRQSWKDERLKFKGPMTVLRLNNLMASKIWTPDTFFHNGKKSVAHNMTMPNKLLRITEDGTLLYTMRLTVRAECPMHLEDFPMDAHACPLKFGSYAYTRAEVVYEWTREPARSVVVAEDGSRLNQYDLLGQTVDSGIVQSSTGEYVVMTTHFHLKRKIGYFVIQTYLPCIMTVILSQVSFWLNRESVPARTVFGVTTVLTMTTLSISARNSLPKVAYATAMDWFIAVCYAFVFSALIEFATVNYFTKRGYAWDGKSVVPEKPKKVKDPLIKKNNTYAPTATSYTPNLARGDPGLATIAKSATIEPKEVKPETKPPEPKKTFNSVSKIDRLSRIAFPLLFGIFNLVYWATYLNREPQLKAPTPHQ

| Compound | AC50 [1] | AC50 [2] | AC50 (D(3) dopamine receptor) | AC50 [3] | AC50 [4] | AC50 [5] | AC50 [6] | AC50 [7] | AC50 [8] | AC50 [9] |
| --- | --- | --- | --- | --- | --- | --- | --- | --- | --- | --- |
| CC(=O)OCC(=O)[C@@]1(O)CC[C@H]2[C@@H]3CCC4=CC(=O)CC[C@]4(C)[C@@]3(F)[C@@H](O)C[C@@]21C [FLUDROCORTISONE ACETATE] | > 30 µM | > 30 µM | > 30 µM | > 30 µM | > 30 µM | > 30 µM | > 30 µM | > 30 µM | > 30 µM |  |
| O=C(O)c1ccc2nc(-c3cc(Cl)cc(Cl)c3)oc2c1 | > 30 µM | > 30 µM | > 1 µM | > 30 µM |  | 30 µM | > 30 µM | > 30 µM | > 30 µM | 18 µM |
| CCN(CC)Cc1nccn1-c1ccc([N+](=O)[O-])cc1C(=O)c1ccccc1Cl [NIZOFENONE] | > 30 µM | > 30 µM | > 30 µM | > 30 µM |  | > 30 µM | > 30 µM | > 30 µM | 6.3 µM | > 30 µM |
| CNCCc1ccccn1 [BETAHISTINE] | > 30 µM | > 30 µM | > 30 µM | > 30 µM | > 30 µM | > 30 µM | > 30 µM | > 30 µM | > 30 µM | > 30 µM |
| CC(=O)Oc1cccc2c1C(=O)c1c(OC(C)=O)cc(C(=O)O)cc1C2=O [DIACEREIN] | > 30 µM | > 30 µM | > 30 µM | > 30 µM |  | > 30 µM | 21 µM | > 30 µM | > 30 µM | > 30 µM |
| CN(C)CCOCC(=O)NC12CC3CC(CC(C3)C1)C2 [TROMANTADINE] |  | > 30 µM | > 30 µM | > 30 µM |  | > 30 µM | > 30 µM | > 30 µM | 11 µM | > 30 µM |
| CO/N=C(\C(=O)N[C@@H]1C(=O)N2C(C(=O)[O-])=C(C[n+]3ccc(N)n3CCO)CS[C@H]12)c1csc(N)n1 [CEFOSELIS] | > 30 µM | > 30 µM | > 30 µM | > 30 µM |  | > 30 µM | > 30 µM | > 30 µM | > 30 µM | > 30 µM |
| COc1cc(N)cn[n+]1-c1ccccc1 [AMEZINIUM METILSULFATE] | > 30 µM | > 30 µM | > 30 µM | > 30 µM | 9.1 µM | > 30 µM | > 30 µM | > 30 µM | > 30 µM | 11 µM |
| CCc1ccc(C(=O)C(C)CN2CCCCC2)cc1 (stereo not given) [EPERISONE] | > 30 µM | 2.09 µM | 9.4 µM | > 30 µM |  | 19 µM | > 30 µM | > 30 µM | > 30 µM | > 30 µM |
| Cc1ccc(S(=O)(=O)NC(=O)N[C@H]2[C@H]3CC[C@@](C)([C@H]2O)C3(C)C)cc1 [GLIBORNURIDE] | > 30 µM | > 30 µM | > 30 µM | > 30 µM | > 30 µM | > 30 µM | > 30 µM | > 30 µM | > 30 µM | > 30 µM |
| CCCO[C@H]1[C@@H]([C@@H](COCc2ccc(Cl)cc2)OCc2ccc(Cl)cc2)OC(OCC)[C@@H]1O (stereo not given in full) [CLOBENOSIDE] | > 30 µM | > 30 µM | > 30 µM | > 30 µM | > 30 µM | > 30 µM | > 30 µM | > 30 µM | 27 µM | > 30 µM |
| CC1=C(/C=C/C(C)=C/C=C/C(C)=C/C(=O)Oc2c(C)c(C)c3c(c2C)CCC(C)(CCCC(C)CCCC(C)CCCC(C)C)O3)C(C)(C)CCC1 (stereo not given) [TRETINOIN TOCOFERIL] | > 30 µM | > 30 µM | > 30 µM | > 30 µM |  | > 30 µM | > 30 µM | > 30 µM | > 30 µM | > 30 µM |
| COc1ccc2c3c1O[C@H]1C(=O)CC[C@H]4[C@@H](C2)N(C)CC[C@]314 [HYDROCODONE] | > 10 µM | > 10 µM | > 10 µM | > 10 µM | > 10 µM |  | > 30 µM | > 30 µM |  | > 10 µM |
| OCC(CO)N[C@H]1C[C@](O)(CO)[C@@H](O)[C@H](O)[C@H]1O [VOGLIBOSE] | > 30 µM | > 30 µM | > 30 µM | > 30 µM |  | > 30 µM | > 30 µM | > 30 µM | > 30 µM | > 30 µM |
| SITOSTEROLS | > 30 µM | > 30 µM | > 30 µM | > 30 µM | > 30 µM | > 30 µM | > 30 µM | > 30 µM | > 30 µM | > 30 µM |
| CCCCOC(=O)c1ccc(N)cc1 [BUTAMBEN] | > 30 µM | > 30 µM | > 30 µM | > 30 µM | > 30 µM | > 30 µM | > 30 µM | > 30 µM | > 30 µM | > 30 µM |
| C[C@H](N)C(=O)N[C@@H](CCC(N)=O)C(=O)O [ALANYL GLUTAMINE] (H-Ala-Gln-OH) | > 30 µM | > 30 µM | > 30 µM | > 30 µM |  | > 30 µM | > 30 µM | > 30 µM | > 30 µM | 15 µM |
| CO/N=C(\C(=O)N[C@@H]1C(=O)N2C(C(=O)O)=C(CSc3nc(C)c(CC(=O)O)s3)CS[C@H]12)c1csc(N)n1 [CEFODIZIME] | > 30 µM | > 30 µM | > 30 µM | > 30 µM |  | > 30 µM | > 30 µM | > 30 µM | > 30 µM | > 30 µM |
| CCCCOC(=O)C(=O)Nc1cccc(-c2nnn[nH]2)c1 [TAZANOLAST] | > 30 µM | > 30 µM | > 30 µM | > 30 µM |  | > 30 µM | > 30 µM | > 30 µM | > 30 µM | > 30 µM |
